Series [1] concerns HEK293. The series can be described thus: SAR Analysis of small molecule inhibitors of B-cell specific antigen receptor-induced NF-kB activation in a HEK-293T cell line using a luminescence assay - Set 2. [Related pubchem assays (depositor defined):AID435022, AID435025, AID489021]. The series is classed as functional, cell-based. The conditions noted are these: Homo sapiens.
Series [2] deals with HEK293. Put plainly: HEK293T cell viability loss, resazurin readout – resazurin fluorescence, cytotoxicity control for NF-kB activator project, SAR follow-up (AID 493251). The series is classed as functional, cell-based. The following applies: Homo sapiens. (In general: Resazurin is reduced to fluorescent resorufin, in cell work by metabolically active cells.)
The nature of series [3]: Luminescence-based counterscreen assay for KLF5 inhibitors: dose response cell-based high throughput screening assay to identify cytotoxic compounds using the IEC-6 intestinal epithelial cell line. [Related pubchem assays: 1700 (Primary screen.), 1834 (Confirmation screen.), 1858 (Summary AID.), 1905 (Counterscreen.)]. The series is classed as functional. In general terms: The purpose of a counterscreen is to sort out artefacts and off-target activity.

Series [4] is described as follows: alpha-synuclein stem-loop translation blockers – luminescence, H4 neuroglioblastoma cells, dose confirmation, confirmation (AID 2454).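 Also: H4 neuroglioblastoma cells carrying an alpha-synuclein 5'UTR luciferase reporter; potency for inhibition of the luciferase signal.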 The class given is functional, cell-based.
A short description of series [5]: luciferase reporter signal reduction – luminescence, H4-C neuroglioblastoma cells, dose response (AID 2458).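 Also: H4 neuroglioblastoma cells stably carrying a luciferase reporter gene fusion.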 The class given is functional, cell-based. For orientation: Reporter assays use an easily measured gene product as a stand-in for the process of interest.
The nature of series [6]: HEK-293T cell viability reduction – luminescence, B-cell screen hits, cytotoxicity control for BCR NF-kB inhibitor project, dose response (AID 489021).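 Also: HEK-293T cells carrying an NF-kB luciferase reporter; cells exposed to compound for about 14 hours before viability readout.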 The series is classed as functional, cell-based.
The nature of series [7]: luciferase reporter signal suppression in cells – H4 neuroglioma cells, luminescence, dose response (AID 1990). The series is classed as functional, cell-based.
A short description of series [8]: Luminescence Cell-Based Dose Response HTS to Identify Inhibitors of 5'UTR Stem-Loop Driven Prion Protein mRNA Translation in H4 Neuroglioblastoma Cells. [Related pubchem assays: 1827 (Project Summary), 1813 (Primary HTS)]. The series is classed as functional.
Another series in a line: cells. The class given is functional, cell-based.
The subject of a further series is Jurkat. The series can be described thus: SAR Analysis of small molecule inhibitors of […] specific antigen receptor-induced NF-kB activation in a Jurkat cell line using a luminescence assay - Set 3. [Related pubchem assays (depositor defined):AID435022, AID435025, AID465]. The series is classed as functional, cell-based. The following applies: Homo sapiens.

Series [9] in a line: alpha-synuclein stem-loop luciferase translation blockers – H4 neuroglioma cells, luminescence, confirmation (AID 1988). The series is classed as functional, cell-based.
In another series the target is Cytochrome P450 2C19 (Homo sapiens, UniProt P33261). Put plainly: Cytochrome panel assay with activity outcomes. Panel member name: p450-cyp2c19 Compounds with AC50 equal or less than 10 uM are considered active. The class given is functional.
The next series deals with Cytochrome P450 2C9 (Homo sapiens, UniProt P11712).
The target in another series is T1, Cytochrome P450 1A2 (Homo sapiens, UniProt P05177).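 Also: PubChem cytochrome P450 panel assay, CYP1A2 panel member.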
T1 sequence (P05177 whole entry): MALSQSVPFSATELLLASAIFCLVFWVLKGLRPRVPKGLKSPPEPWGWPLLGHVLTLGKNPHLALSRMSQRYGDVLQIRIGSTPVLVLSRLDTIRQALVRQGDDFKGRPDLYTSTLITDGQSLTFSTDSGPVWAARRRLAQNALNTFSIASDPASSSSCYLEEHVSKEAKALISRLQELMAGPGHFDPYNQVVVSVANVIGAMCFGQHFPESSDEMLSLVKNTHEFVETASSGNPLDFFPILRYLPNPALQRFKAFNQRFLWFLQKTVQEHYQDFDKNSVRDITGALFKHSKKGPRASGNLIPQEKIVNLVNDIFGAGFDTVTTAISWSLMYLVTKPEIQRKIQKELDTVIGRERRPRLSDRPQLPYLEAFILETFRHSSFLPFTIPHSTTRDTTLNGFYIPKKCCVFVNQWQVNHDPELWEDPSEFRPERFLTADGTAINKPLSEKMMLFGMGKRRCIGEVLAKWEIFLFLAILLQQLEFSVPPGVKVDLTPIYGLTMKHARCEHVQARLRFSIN

The source made the active and inactive calls.

Sequence of Cytochrome P450 2C9 (P11712 whole entry): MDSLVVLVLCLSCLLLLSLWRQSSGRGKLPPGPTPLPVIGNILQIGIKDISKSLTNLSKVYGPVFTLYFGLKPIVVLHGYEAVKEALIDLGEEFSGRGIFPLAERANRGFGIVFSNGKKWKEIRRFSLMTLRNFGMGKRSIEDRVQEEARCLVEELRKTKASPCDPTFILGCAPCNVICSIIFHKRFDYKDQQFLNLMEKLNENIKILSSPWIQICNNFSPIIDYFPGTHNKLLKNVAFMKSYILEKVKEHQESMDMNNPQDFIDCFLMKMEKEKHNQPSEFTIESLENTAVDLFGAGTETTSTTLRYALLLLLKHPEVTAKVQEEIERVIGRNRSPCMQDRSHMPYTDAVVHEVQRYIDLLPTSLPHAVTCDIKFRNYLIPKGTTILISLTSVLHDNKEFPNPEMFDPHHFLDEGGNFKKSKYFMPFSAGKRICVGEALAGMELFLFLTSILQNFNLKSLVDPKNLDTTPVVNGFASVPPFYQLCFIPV
Sequence of Cytochrome P450 2C19 (P33261 whole entry): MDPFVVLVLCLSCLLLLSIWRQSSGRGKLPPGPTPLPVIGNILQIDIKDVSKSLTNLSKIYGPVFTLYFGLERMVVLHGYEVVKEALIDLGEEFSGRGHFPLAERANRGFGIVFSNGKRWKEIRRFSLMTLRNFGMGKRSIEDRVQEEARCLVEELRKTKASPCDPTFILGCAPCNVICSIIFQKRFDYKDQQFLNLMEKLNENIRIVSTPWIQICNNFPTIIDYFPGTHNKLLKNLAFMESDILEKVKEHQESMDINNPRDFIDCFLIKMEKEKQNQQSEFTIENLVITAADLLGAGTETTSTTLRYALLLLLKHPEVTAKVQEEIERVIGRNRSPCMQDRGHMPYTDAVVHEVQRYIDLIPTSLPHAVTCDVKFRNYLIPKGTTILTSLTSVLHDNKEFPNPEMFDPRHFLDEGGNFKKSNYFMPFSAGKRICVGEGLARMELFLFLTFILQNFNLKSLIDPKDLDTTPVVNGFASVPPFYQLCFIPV

For the molecule `CC(C)(C)c1ccc(-c2noc(CCC(=O)Nc3cccnc3)n2)cc1`, the IC50 in the series with HEK293 [1] is 470 nM (active); in the series with HEK293 [2] it was 20500 nM (inactive); in [3], > 39800 nM (not active); in [6], > 80000 nM (inactive); in the series with Jurkat it was 435 nM (active). Also, the EC50 was 774 nM (active) in series [4]; 1180 nM (active) in series [5]; < 100 nM (active) in series [7]; < 100 nM (active) in series [8]; 321 nM (active) in the series “cells”; < 100 nM (active) in series [9].
Turning to `Cc1noc(C)c1C(=O)N1CCC2(CCCN(C(=O)NC(C)C)C2)CC1`, the AC50 entry at Cytochrome P450 2C19, at Cytochrome P450 2C9 and at Cytochrome P450 1A2 was “inconclusive” throughout.

For orientation: IC50 means the concentration that inhibits the measured activity by half. The EC50 is the midpoint of the concentration-response curve.

The values above are taken from ChEMBL document CHEMBL1201862, “PubChem BioAssay data set” (2004).
